From PubChem BioAssay (NCI)
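Interpolation was linear, between the two tested concentrations surrounding the appropriate level; five concentrations were tested over 48 hours in 96-well plates. At the TGI there is no net growth.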

Columns and labels:
Assay in all cases: DTP human tumour cell line panel, 48 h
A498 renal = tested on: A498 renal
M14 melanoma = tested on: M14 melanoma
MALME-3M melanoma = tested on: MALME-3M melanoma
MCF7 breast = tested on: MCF7 breast
NCI-H522 lung = tested on: NCI-H522 lung
OVCAR-4 ovarian = tested on: OVCAR-4 ovarian
SF-295 CNS = tested on: SF-295 CNS
TK-10 renal = tested on: TK-10 renal
UACC-257 melanoma = tested on: UACC-257 melanoma
UACC-62 melanoma = tested on: UACC-62 melanoma

Compound	TGI (A498 renal) [µM]	TGI (M14 melanoma) [µM]	TGI (MALME-3M melanoma) [µM]	TGI (MCF7 breast) [µM]	TGI (NCI-H522 lung) [µM]	TGI (OVCAR-4 ovarian) [µM]	TGI (SF-295 CNS) [µM]	TGI (TK-10 renal) [µM]	TGI (UACC-257 melanoma) [µM]	TGI (UACC-62 melanoma) [µM]
CC(C)[Si](OC1=CCC[C@H]2NC(=O)[C@@H](Cc3ccccc3)[C@@]12C)(C(C)C)C(C)C	19.2	24.7	34.3	13.4	17.4	19.7	17.2	21.7	16.3	22.4
Cc1cc(C)nc(SC(C)C(=O)N/N=C/c2ccc(OCc3ccccc3)cc2)n1 (stereo not given)	> 100	> 100	> 100	90.5	> 100	> 100	> 100	> 100	37.9	92.5
COc1ccc(C(SCCO)(c2ccccc2)c2ccccc2)cc1	33.3	21.3	38.5	25	34.4	31.4	28.6	35	32.7	28.1
COC(=O)/C=C/c1ccc2c(c1)CC1(C2)Cc2cc3c(cc2C1=O)CCC3 (stereo not given)	> 100	> 100	> 100	> 100	> 100	> 100	> 100	> 100	> 100	> 100
CSc1ccc(NC(=S)NN(C)C)cc1	> 10	> 10	> 10	> 10	> 10	> 10	> 10	> 10	> 10	> 10
CC(C)(C)c1cc(C2=NN(c3ccccc3)C(c3ccccc3)C2)cc(C(C)(C)C)c1O (stereo not given)	> 100	> 100	> 100	> 100	> 100	> 100	> 100	> 100	> 100	> 100
O=C(/C=C/c1cc(O)c(O)cc1O)OCCc1ccccc1	37.4	32.7	28.2	20.9	4.74	31.8	> 82.3	17.6	> 64.9	40.5
CCCCN1C(=O)c2c(-c3sccc3N)sc(-c3sccc3N)c2C1=O	76.8	> 100	> 100	> 100	> 100	45.3	58	72.5	> 100	> 64.6
O=C(/C=C/c1ccc(O)c(O)c1)c1cc(O)cc(O)c1	33.4	26.9	27.6	12.7	3.73	22.2	40.1	39.7	23	26.1
Cn1c(-c2ccccc2)cc2c3ccsc3c3ccsc3c21	> 100	> 100	> 100	> 100	> 100	> 100	> 100	> 100	> 100	> 100
N#C/C(=C\c1cc(Cl)cc(Cl)c1)c1ccccn1	8.25	> 100	> 100	> 100	> 100	> 100	> 100	> 100	> 100	> 100
CC(=O)N(O)[C@@H]1CC[C@H](n2cnc3c(N)ncnc32)C1	> 100	> 100	> 100	> 100	> 100	> 100	> 100	> 100	> 100	> 100
C#CC1(O)C(COP(=O)(O)OCC2OC(n3ccc(NCCCCCCCCCCCCCCCCCC)nc3=O)C(O)C2O)OC(n2ccc(N)nc2=O)C1O (stereo not given)	59.2	15.2	11	> 59.7	0.773	34.8	18.6	19.1	60.2	10.3
COC(=O)c1ccc(C)cc1/C=C1\Cc2ccc(C)cc2C1=O	47.9	33.5	30.1	40.6	45	46.1	41.1	42.4	51.5	26.7
Nc1nc(N)c2ncn(Cc3ccccc3CCl)c2n1	> 100	> 100	> 100	> 100	> 100	> 100	> 100	> 100	> 100	> 100
COC(=O)C1CCC(=O)N1C(c1ccc(OC)cc1)c1ccc(OC)cc1 (stereo not given)	> 100	> 100	> 100	> 100	> 100	> 100	> 100	> 100	> 100	> 100
NCCCNC1(c2cc3ccccc3s2)CCCCC1	9.03	3.51	3.65	12.2	9.13	25.5	24.8	12	3.23	3.87
